BindingDB's records for doi:10.1021/jm9903139 (Departement D'Ingenierie Et D'Etudes Des Proteines, 2000)
Starred links: 1 amine or outer side, 2 acyl side, 3 side chain; linkers in the order of their positions; H or OH if unused. Non-standard residues stand in square brackets, D forms with d. Residues, ends and D or L forms follow the SMILES beside them. *: point of attachment. NHCH2CHPh2 = c1ccc(C(CN*)c2ccccc2)cc1; pNA = O=[N+]([O-])c1ccc(N*)cc1; NHPhenethyl = c1ccc(CCN*)cc1; Suc = O=C(CCC(=O)[*:2])[*:1]; Orn = NCCC[C@H](N)C(=O)O

Biological target: Peptidyl-prolyl cis-trans isomerase A (cyclophilin A, hCyp-18) (Homo sapiens) (UniProt P62937)
Assay: 50% inhibitory concentration of competitive binding against hCyp-18 PPIase activity using uncoupled assay

Chain of Peptidyl-prolyl cis-trans isomerase A (cyclophilin A, hCyp-18) (Homo sapiens) (P62937 whole entry, looked up): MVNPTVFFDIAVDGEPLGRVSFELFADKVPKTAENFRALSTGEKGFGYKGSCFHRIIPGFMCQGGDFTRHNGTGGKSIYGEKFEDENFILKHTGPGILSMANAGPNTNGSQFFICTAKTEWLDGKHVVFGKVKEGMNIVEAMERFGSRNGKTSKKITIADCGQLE

Row | SMILES | IC50 [µM]
1 | CC[C@H](C)[C@H](NC(=O)[C@@H]1CCCN1C(=O)CNC(=O)[C@H](C)NC(=O)[C@H](CCCN)NC(=O)[C@@H](NC(C)=O)C(C)C)C(=O)N[C@@H](C)C(N)=O [1-(2-{2-[2-(2-Acetylamino-3-methyl-butyrylamino)-5-amino-pentanoylamino]-propionylamino}-acetyl)-pyrrolidine-2-carboxylic acid [1-(1-carbamoyl-ethylcarbamoyl)-2-methyl-butyl]-amide] (Ac-V[Orn]AGPIA-NH2) | > 10000
2 | CC[C@H](C)[C@H](NC(=O)[C@@H]1CCCN1C(=O)CNC(=O)[C@H](C)NC(=O)[C@H](Cc1cnc[nH]1)NC(=O)[C@@H](NC(C)=O)C(C)C)C(=O)NCC(c1ccccc1)c1ccccc1 (Ac-VHAGPI-NHCH2CHPh2) | 365
3 | C[C@H](NC(=O)CCC(=O)O)C(=O)N[C@@H](C)C(=O)N1CCC[C@H]1C(=O)N[C@@H](Cc1ccccc1)C(=O)Nc1ccc([N+](=O)[O-])cc1 [N-[1-(1-Methyl-2-{2-[1-(4-nitro-phenylcarbamoyl)-2-phenyl-ethylcarbamoyl]-pyrrolidin-1-yl}-2-oxo-ethylcarbamoyl)-ethyl]-succinamic acid] (Suc-AAPF-pNA) | 850

Molecules with a lower IC50, results first:

Row | IC50 [µM] | SMILES
4 | 325 | CC[C@H](C)[C@H](NC(=O)[C@@H]1CCCN1C(=O)CNC(=O)[C@H](C)NC(=O)[C@H](Cc1cnc[nH]1)NC(=O)[C@@H](NC(C)=O)C(C)C)C(=O)NCCc1ccccc1 (Ac-VHAGPI-NHPhenethyl)
5 | 8 | CC[C@@H]1/C=C(\C)C[C@H](C)C[C@H](OC)[C@H]2O[C@@](O)(C(=O)C(=O)N3CCCC[C@H]3C(=O)O[C@H](/C(C)=C/[C@@H]3CC[C@@H](O)[C@H](OC)C3)[C@H](C)[C@@H](O)CC1=O)[C@H](C)C[C@@H]2OC
